# Assay results reported in paper PMC4669722, “Antitumour potential of BPT: a dual inhibitor of cdk4 and tubulin polymerization” (Cell Death & Disease, 2015).
# Tests used:
# [1] = Body weight measurements in xenograft models; type: in vivo, SCID mice
# Experimental: The body weights of animals in different treatment and control groups were monitored by taking the measurements daily during the treatment schedule. By considering the body weight at the start of the treatment as 100%, the percent weight loss was calculated on subsequent days of treatments.
# [2] = target: Cdk9-cyclin T1 (Homo sapiens, UniProt P50750); assay: In vitro kinase assay, Cdk9-cyclin T1 (in-house); type: biochemical; settings: three independent experiments; read-out: IC50 (mean±S.D.), Cdk9-cyclin T1
# Cdk9-cyclin T1, sequence (P50750 whole entry): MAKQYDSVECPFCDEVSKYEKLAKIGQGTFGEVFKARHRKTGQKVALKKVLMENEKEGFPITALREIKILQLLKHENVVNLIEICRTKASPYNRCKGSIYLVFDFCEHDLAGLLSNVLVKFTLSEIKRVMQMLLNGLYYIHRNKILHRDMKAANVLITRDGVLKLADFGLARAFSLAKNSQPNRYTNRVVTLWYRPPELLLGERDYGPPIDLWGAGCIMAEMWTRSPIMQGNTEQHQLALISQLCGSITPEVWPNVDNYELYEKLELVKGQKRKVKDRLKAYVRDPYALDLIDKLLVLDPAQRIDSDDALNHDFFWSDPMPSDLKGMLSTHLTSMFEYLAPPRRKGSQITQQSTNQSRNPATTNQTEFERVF
# Cdk9-cyclin T1, sequence (O60563 whole entry partner): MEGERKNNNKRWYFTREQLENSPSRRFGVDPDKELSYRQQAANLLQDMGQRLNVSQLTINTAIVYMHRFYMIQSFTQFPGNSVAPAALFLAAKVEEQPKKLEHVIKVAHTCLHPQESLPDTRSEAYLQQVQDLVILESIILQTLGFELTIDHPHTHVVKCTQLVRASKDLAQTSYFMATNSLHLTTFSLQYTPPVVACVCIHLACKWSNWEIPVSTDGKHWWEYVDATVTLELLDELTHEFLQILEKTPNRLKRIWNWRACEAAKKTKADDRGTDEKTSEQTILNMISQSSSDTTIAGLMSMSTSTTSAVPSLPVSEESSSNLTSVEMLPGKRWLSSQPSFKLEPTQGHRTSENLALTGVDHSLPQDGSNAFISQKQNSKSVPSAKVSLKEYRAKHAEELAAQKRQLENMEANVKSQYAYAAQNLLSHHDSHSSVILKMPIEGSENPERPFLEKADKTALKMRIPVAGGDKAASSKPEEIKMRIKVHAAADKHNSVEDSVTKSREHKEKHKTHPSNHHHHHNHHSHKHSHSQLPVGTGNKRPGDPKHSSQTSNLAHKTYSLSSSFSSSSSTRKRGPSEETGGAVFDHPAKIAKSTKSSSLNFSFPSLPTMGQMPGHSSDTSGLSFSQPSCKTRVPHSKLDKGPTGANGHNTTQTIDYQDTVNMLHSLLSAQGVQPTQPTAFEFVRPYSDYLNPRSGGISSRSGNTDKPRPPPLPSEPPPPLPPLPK
# Experimental: (§1) The in vitro kinase assays for testing against Cdk4-cyclin D1, Cdk2-cyclin A, Cdk1-cyclin B1 and Cdk9-cyclin T1 were performed in-house. The methodology and results have been reported previously.[20], [30], [31], [32], [45] The kinase profiling for 58 representative kinases was carrried out commercially at Millipore Bioscience Division, Livingston, UK.
# [3] = system: BNL SV A.8 (mouse embryonic SV40-transformed hepatic cells); assay: Flow cytometric cell cycle analysis, BNL SV A.8; type: cell-based; settings: 48 h
# Experimental: The untreated (control) and treated (with test compounds) cells were harvested by trypsinization, washed once with PBS and then fixed in 70% chilled (−20 °C) ethanol for minimum 1 h. After the fixation step, cells were centrifuged for 5 min at 3000 × g at room temperature, and the pellet was suspended in PBS containing 50 μg/ml propidium iodide (Sigma-Aldrich, Dorset, UK; cat. no. P-4170) and 0.5 mg/ml DNase-free ribonuclease (Sigma-Aldrich; cat. no. R-5503). The cells were stained for 1 h in the dark at 4 °C. Cell cycle analysis was performed on the Beckman Coulter (Epics Altra) fluorescence-activated cell sorter (Beckman Coulter UK Ltd, Buckinghamshire, UK). To gate all the events that represent single cells, and not cell doublets or cell clumps, the following analyses were performed on the samples. Cytograms of propidium iodide fluorescence peak signal versus integrated fluorescence or the linear signal were plotted. All data points on the straight line were isolated in a single gate and the gated data was further used for plotting a histogram that represents a complete cell cycle. The total number of events was not allowed to exceed 200 events per s. Data acquisition was stopped after a minimum of 10 000 events had been collected.
# [4] = system: PC-3 (prostate; p53 null, pRb+); assay: Cell proliferation (MTT) assay, PC-3; type: cell-based; settings: Homo sapiens, 48 h, read-out: IC50 cell growth inhibition, PC-3
# Experimental: (§2) All 10 human cancer cell lines were maintained at 37 °C in 5% CO2 in RPMI-1640 medium, supplemented with 10% foetal calf serum and 100 μg/ml normocin. The 10 cancer cell lines used for screening were all obtained from ATCC (Manassas, VA, USA); they were the NSCLC (a form of cancer that is resistant to chemotherapy) lines: NCI-H460 (pRb^+, p53^+), A549 (pRb^+, p53^+), Calu-1 (pRb^+, p53-null), NCI-H1299 (pRb^+, p53-null), NCI-H358 (pRb-null, p53-null); the colon cancer line LS174T (pRb^+, p53^+); the prostate cancer line PC-3 (pRb^+, p53-null); the pancreatic cancer line MiaPaca (pRb^+, p53-mutant). The genotypes within brackets indicate the status of the tumour suppressor proteins pRb and p53. The mouse embryonic normal hepatic cell line (BNL CL2) and its SV40 large T-antigen-transformed counterpart cell line (BNL SV A.8) were also purchased from ATCC. The large T-antigen inactivates the tumour suppressor proteins p53 and pRb. The detailed procedure of cell proliferation (MTT) assay and IC50 determination was described previously.[32]
# [5] = target: PKA (Homo sapiens, UniProt P17612); assay: Kinase profiling (Millipore), PKA; type: biochemical
# Experimental: as §1
# [6] = Pharmacokinetics in BALB/c mice; type: in vivo
# Experimental: Oral and intravenous pharmacokinetic studies of BPT were carried out in BALB/c male mice of age 4–6 weeks, by administering BPT orally and intravenous formulation at dose of 10 mg/kg for oral and 1 mg/kg for intravenous. Plasma samples were collected at appropriate time points between the range 0 and 24 h, and analysed by LC-MS-MS. Mean plasma concentration calculated and data were further analysed to determine PK parameters such as t1/2, Cmax, ACU, Vd and CL, using WinNonlin 5.3 software package (Pharsight Company, Princeton, NJ, USA).
# [7] = target: GSK3β (Homo sapiens, UniProt P49841); assay: Kinase profiling (Millipore), GSK3β; type: biochemical
# GSK3β, sequence (P49841 whole entry): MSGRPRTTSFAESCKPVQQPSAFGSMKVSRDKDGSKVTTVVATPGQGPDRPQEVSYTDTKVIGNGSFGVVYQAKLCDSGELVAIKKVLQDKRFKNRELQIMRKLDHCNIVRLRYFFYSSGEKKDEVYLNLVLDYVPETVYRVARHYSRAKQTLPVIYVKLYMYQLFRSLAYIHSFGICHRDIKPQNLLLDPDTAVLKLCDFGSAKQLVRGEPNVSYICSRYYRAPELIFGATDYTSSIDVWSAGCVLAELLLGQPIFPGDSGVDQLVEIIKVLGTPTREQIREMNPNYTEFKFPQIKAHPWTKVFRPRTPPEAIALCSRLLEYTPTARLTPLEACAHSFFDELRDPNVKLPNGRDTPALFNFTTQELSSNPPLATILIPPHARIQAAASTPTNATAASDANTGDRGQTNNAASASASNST
# Experimental: as §1
# [8] = system: tubulin; assay: Cell-free tubulin polymerization assay in vitro; type: biochemical; settings: for Vmax of tubulin polymerization: control 19 mOD/min
# Experimental: The purified tubulin was obtained commercially (Cytoskeleton Inc., Denver, CO, USA) and the polymerization assays were carried out according to the method described previously.[36] […] The resulting polymerization curves are representative of the three phases of microtubule polymerization, namely nucleation, growth and steady-state equilibrium. Paclitaxel and nocodazole were used in the assay as a known enhancer and inhibitor of tubulin polymerization, respectively. The ability of BPT to inhibit tubulin polymerization in vitro was determined according to the manufacturer's instructions. Briefly, tubulin protein (3 mg/ml) was polymerized in GTP buffer (80 mM PIPES, pH 6.9, 2 mM MgCl2, 0.5 mM EGTA, 10.2% glycerol and 1 mM GTP) in the presence of a range of BPT concentrations at 37 °C in a temperature-regulated Biotech spectrophotometer (Potton, Bedfordshire, UK). The absorbance (at 340 nm) kinetics of 61 cycles for each sample was studied and the readings were recorded at an interval of 1 min.
# [9] = MTD finding study; type: in vivo; settings: mice
# Experimental: Swiss-albino mice were used to determine the MTD for the compound. BPT was weighed and mixed with 0.5% (w/v) carboxymethylcellulose and triturated with Tween-20 (secundum artum) with gradual addition of water to make up the final concentration. Care was taken not to exceed >0.25% of Tween-20 in the final formulation of the BPT. In this study, six animals per group were administered with BPT at different doses for 5 days (Q1D × 5) via intraperitoneal route. Animals were monitored for weight loss, morbidity symptoms and mortality up to 2 weeks by the end of treatment. Significant weight loss was considered when mean animal weight dropped by ⩾10% and was considered highly significant when the drop was ⩾20%.
# [10] = system: MiaPaCa (pancreatic; p53His273mut, pRb+); assay: Cell proliferation (MTT) assay, MiaPaCa; type: cell-based; settings: Homo sapiens, MIA PaCa-2, 48 h, read-out: IC50 cell growth inhibition, MiaPaCa
# Experimental: as §2
# [11] = male, mouse, plasma, 1.0 mg/kg intravenous
smiles,measurement,setting,value
"O=C(c1ccccc1-c1ccccc1)N1CCc2c([nH]c3ccccc23)C1 [BPT, 2-(biphenyl-2-carbonyl)-2,3,4,9-tetrahydro-1H-pyrido[3,4-b]indole]",weight loss of treated animals,"[1]; SCID mice-HCT116 tumour model, 100 mpk, of starting weight",< 10%
same,weight loss of treated animals,[1]; both tumour models (HCT-116 and NCI-H460),statistically insignificant weight loss
same,IC50,[2],> 1000 µM
same,cells in Sub G1 (apoptosis),"[3]; BNL SV A.8, IC50 concentration",43%
same,cells in Sub G1 (apoptosis),"[3]; BNL SV A.8, IC70 concentration",51%
same,IC50,[4],0.74 µM
same,IC50,[5],> 10 µM
same,oral bioavailability,[6],poor
same,plasma exposure after intravenous administration,[6],good plasma exposure
same,CL,[6]; 1.0 mg/kg intravenous,95.8 ml/min per kg
same,AUC(0-inf),[6]; [11],174 ng·h/mL
same,AUC(0-t),[6]; [11],170 ng·h/mL
same,C0,[6]; [11],888 ng/mL
same,Cmax,[6]; [11],413 ng/mL
same,Vd,[6]; [11],1.56 L/kg
same,half-life,[6]; [11],11.4 min
same,AUC(0-t),"[6]; male, mouse, plasma, oral, 10 mg/kg per os",17.7 ng·h/mL
same,IC50,[7],> 10 µM
same,Vmax of tubulin polymerization,[8]; 0.5 μM,12.5 mOD/min
same,Vmax of tubulin polymerization,[8]; 1 μM,9.2 mOD/min
same,Vmax of tubulin polymerization,[8]; 2.5 μM,3 mOD/min
same,Vmax of tubulin polymerization,[8]; 5 μM,0.5 mOD/min
same,reduction in final polymer mass,[8]; 0.5-5 μM,up to 80%
same,maximum-tolerated dose,[9],1000 mg/kg
same,IC50,[10],0.8 µM
